Measured values published in US20260138976A1 (Hoffmann-La Roche Inc., priority 2022, published 2026).

Columns and labels:
[1] = target: T1, DGKα (hDGKalpha(1-735)-N-His) (Homo sapiens, UniProt P23743); test: In vitro DGK inhibition assay, DGKalpha ADP Glo (in house); assay type: biochemical; details: 4 nM DGKα, 25 μM ATP, 125 uM DLG in liposomes, 1 hour reaction
T1 construct: hDGKalpha(1-735)-N-His; His (N); made in house; host or cells: Sf21 insect cells (baculovirus)
Outline: (§1)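 ADP-Glo luminescence measured ADP formed over 1 h by Sf21-expressed full-length human enzymes: DGKα at 4 nM with 25 µM ATP, DGKζ at 2 nM with 50 µM ATP, both on 125 µM DLG in PS/PC liposomes. Dose–response used 11 threefold dilutions at 2% final DMSO.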

[2] = target: T2, DGKζ (hDGKzeta(1-928)-N-His) (Homo sapiens, UniProt Q13574); test: In vitro DGK inhibition assay, DGKzeta ADP Glo (in house); assay type: biochemical; details: 2 nM DGKζ, 50 μM ATP, 125 uM DLG in liposomes, 1 hour reaction
T2 construct: hDGKzeta(1-928)-N-His; His (N); made in house; host or cells: Sf21 insect cells (baculovirus)
T2 sequence (Q13574 whole entry): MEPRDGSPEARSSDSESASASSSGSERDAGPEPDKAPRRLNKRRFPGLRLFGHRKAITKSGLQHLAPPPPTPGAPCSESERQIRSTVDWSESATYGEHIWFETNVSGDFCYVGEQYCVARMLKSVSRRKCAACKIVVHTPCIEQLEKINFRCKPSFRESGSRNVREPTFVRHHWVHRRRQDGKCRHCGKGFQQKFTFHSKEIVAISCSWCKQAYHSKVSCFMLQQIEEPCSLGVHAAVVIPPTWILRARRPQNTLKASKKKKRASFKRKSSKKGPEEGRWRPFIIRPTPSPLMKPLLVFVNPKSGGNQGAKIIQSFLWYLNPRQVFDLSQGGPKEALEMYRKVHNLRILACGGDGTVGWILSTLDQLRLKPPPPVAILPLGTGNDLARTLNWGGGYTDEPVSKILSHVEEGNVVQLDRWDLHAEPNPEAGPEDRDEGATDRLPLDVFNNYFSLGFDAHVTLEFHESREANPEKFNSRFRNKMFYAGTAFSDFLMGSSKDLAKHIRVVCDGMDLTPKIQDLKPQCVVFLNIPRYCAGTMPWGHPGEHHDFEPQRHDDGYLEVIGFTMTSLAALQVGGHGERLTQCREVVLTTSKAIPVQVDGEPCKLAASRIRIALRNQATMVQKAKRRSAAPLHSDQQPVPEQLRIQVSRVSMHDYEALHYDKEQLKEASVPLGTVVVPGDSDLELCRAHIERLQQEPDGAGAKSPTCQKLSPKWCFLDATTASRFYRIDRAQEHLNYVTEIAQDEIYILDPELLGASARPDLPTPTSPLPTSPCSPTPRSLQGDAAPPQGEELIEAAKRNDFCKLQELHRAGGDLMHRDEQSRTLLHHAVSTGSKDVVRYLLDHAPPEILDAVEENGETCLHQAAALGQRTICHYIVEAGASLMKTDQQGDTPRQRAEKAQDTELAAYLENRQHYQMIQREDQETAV
Outline: as §1

primary human T-cells = test: IL2 secretion measurements (24 h, CD3-stimulated T-cells, PBS counter screen); assay type: cell-based; details: for Emax IL2 (% activation): CD3 condition, normalised to DMSO (neutral) and 20 μM reference compound A1 = 100%; for EC50: Homo sapiens, T-cell, CD3-stimulated primary human T-cells, IL2 secretion, fitted sigmoidal curve, read-out: Tcell IL2 CD3 EC50
Outline: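 IL-2 secretion was measured by ProQuantum or ELISA after 24 h culture of expanded human T-cells with compound, on CD3-antibody-coated plates or PBS counter-screen plates. Dosing used 5–6 points from a 20 or 10 μM final top at 3.333-fold steps in 0.2% DMSO. EC50/Emax were scaled between DMSO and 20 μM reference A1.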

T1 sequence (P23743 whole entry): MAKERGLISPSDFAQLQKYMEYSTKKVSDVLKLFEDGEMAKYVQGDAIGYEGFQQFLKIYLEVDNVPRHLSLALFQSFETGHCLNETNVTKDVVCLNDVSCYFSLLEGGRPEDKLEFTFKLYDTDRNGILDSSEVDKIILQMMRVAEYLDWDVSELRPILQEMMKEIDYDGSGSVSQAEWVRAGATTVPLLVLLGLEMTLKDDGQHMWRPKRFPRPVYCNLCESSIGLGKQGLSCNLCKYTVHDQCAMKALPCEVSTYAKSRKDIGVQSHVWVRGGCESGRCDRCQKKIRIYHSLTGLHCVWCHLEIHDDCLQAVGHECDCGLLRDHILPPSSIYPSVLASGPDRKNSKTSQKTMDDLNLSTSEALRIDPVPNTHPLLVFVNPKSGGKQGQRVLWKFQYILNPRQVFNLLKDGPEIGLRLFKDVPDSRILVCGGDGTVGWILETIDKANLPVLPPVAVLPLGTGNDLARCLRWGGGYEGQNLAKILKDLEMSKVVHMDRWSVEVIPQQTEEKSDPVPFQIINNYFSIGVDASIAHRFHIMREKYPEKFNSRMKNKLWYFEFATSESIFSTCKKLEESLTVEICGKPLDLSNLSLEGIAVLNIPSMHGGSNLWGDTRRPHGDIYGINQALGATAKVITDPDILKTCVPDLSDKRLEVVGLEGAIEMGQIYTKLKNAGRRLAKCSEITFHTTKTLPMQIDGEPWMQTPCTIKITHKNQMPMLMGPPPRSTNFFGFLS

In the case of `Cn1ccc(-c2ccc(CN3C(=O)[C@@H](N)CS(=O)(=O)c4cc(F)c(-c5nnc(C(C)(C)C)o5)cc43)cc2)n1` [Example 1, (3R)-3-amino-7-(5-tert-butyl-1,3,4-oxadiazol-2-yl)-8-fluoro-5-[[4-(1-methylpyrazol-3-yl)phenyl]methyl]-1,1-dioxo-2,3-dihydro-1λ^6,5-benzothiazepin-4-one], the IC50 [1] is reported as 2.36 µM, the IC50 [2] is reported as 0.488 µM and the “Emax IL2 (% activation)” value (primary human T-cells) is reported as 91 % activation. For the same compound, the EC50 (primary human T-cells) was 1.31 µM.

With `Cc1noc(-c2ccc(CN3C(=O)[C@@H](N)CS(=O)(=O)c4cc(F)c(-c5nnc(C(C)(C)C)o5)cc43)cc2)n1` [Example 2] the IC50 [1] was 0.613 µM, the IC50 [2] was 0.128 µM and the “Emax IL2 (% activation)” value (primary human T-cells) was 168 % activation. It also gave an EC50 (primary human T-cells) of 0.891 µM.

With `CC(C)Nc1nnc(-c2cc3c(cc2F)S(=O)(=O)C[C@H](N)C(=O)N3Cc2ccc(-c3noc(C(F)(F)F)n3)cc2)o1` [Example 6, (3R)-3-amino-8-fluoro-7-[5-(isopropylamino)-1,3,4-oxadiazol-2-yl]-1,1-dioxo-5-[[4-[5-(trifluoromethyl)-1,2,4-oxadiazol-3-yl]phenyl]methyl]-2,3-dihydro-1λ^6,5-benzothiazepin-4-one] the IC50 [1] was 1.87 µM, the IC50 [2] was 0.696 µM and the “Emax IL2 (% activation)” value (primary human T-cells) was 212 % activation. It also gave an EC50 (primary human T-cells) of 1.17 µM.

In the case of `CC(C)(C)c1nc(-c2cc3c(cc2F)S(=O)(=O)C[C@H](N)C(=O)N3Cc2ccc(-c3ccc(CO)cc3)nc2)no1` [Example 7, (3R)-3-amino-7-(5-tert-butyl-1,2,4-oxadiazol-3-yl)-8-fluoro-5-[[6-[4-(hydroxymethyl)phenyl]-3-pyridyl]methyl]-1,1-dioxo-2,3-dihydro-1λ^6,5-benzothiazepin-4-one], the IC50 [1] is reported as > 62.5 µM, the IC50 [2] is reported as 1.4 µM and the “Emax IL2 (% activation)” value (primary human T-cells) is reported as 38 % activation. The EC50 (primary human T-cells) was > 10 µM.

For `N[C@H]1CS(=O)(=O)c2cc(F)c(-c3noc(N4CCCC4)n3)cc2N(Cc2ccc(-c3noc(C(F)(F)F)n3)nc2)C1=O` [Example 15, (3R)-3-amino-8-fluoro-1,1-dioxo-7-(5-pyrrolidin-1-yl-1,2,4-oxadiazol-3-yl)-5-[[6-[5-(trifluoromethyl)-1,2,4-oxadiazol-3-yl]-3-pyridyl]methyl]-2,3-dihydro-1λ^6,5-benzothiazepin-4-one], the IC50 [1] was 40.3 µM, the IC50 [2] was 0.466 µM and the “Emax IL2 (% activation)” value (primary human T-cells) was 39 % activation. The EC50 (primary human T-cells) was > 10 µM.

For `Cc1noc(-c2ccc(CN3C(=O)[C@@H](N)CS(=O)(=O)c4ccc(-c5nnc(C(C)(C)C)o5)cc43)cc2)n1` [Example 20, (3R)-3-amino-7-(5-tert-butyl-1,3,4-oxadiazol-2-yl)-5-[[4-(3-methyl-1,2,4-oxadiazol-5-yl)phenyl]methyl]-1,1-dioxo-2,3-dihydro-1λ^6,5-benzothiazepin-4-one], the IC50 [1] was 4.96 µM, the IC50 [2] was 1.24 µM and the “Emax IL2 (% activation)” value (primary human T-cells) was 82 % activation. For the same compound, the EC50 (primary human T-cells) was 7.63 µM.

In the case of `Cn1ccc(-c2ccc(CN3C(=O)[C@@H](N)CS(=O)(=O)c4ccc(-c5nnc(C(C)(C)C)o5)cc43)cc2)n1` [Example 21], the IC50 [1] is reported as 16.8 µM, the IC50 [2] is reported as 2.31 µM and the “Emax IL2 (% activation)” value (primary human T-cells) is reported as 53 % activation. It also gave an EC50 (primary human T-cells) of 8.01 µM.

For `CC(C)(C)c1nnc(-c2ccc3c(c2)N(Cc2ccc(-c4noc(C(F)(F)F)n4)cc2)C(=O)[C@@H](N)CS3(=O)=O)o1` [Example 23, (3R)-3-amino-7-(5-tert-butyl-1,3,4-oxadiazol-2-yl)-1,1-dioxo-5-[[4-[5-(trifluoromethyl)-1,2,4-oxadiazol-3-yl]phenyl]methyl]-2,3-dihydro-1λ^6,5-benzothiazepin-4-one], the IC50 [1] was 1.53 µM, the IC50 [2] was 0.523 µM and the “Emax IL2 (% activation)” value (primary human T-cells) was 120 % activation. It also gave an EC50 (primary human T-cells) of 0.769 µM.

For `CC(C)(C)c1nnc(-c2ccc3c(c2)N(Cc2ccc(-n4cc(C(F)(F)F)cn4)cc2)C(=O)[C@@H](N)CS3(=O)=O)o1` [Example 25, (3R)-3-amino-7-(5-tert-butyl-1,3,4-oxadiazol-2-yl)-1,1-dioxo-5-[[4-[4-(trifluoromethyl)pyrazol-1-yl]phenyl]methyl]-2,3-dihydro-1λ^6,5-benzothiazepin-4-one], the IC50 [1] was 3.54 µM, the IC50 [2] was 1.27 µM and the “Emax IL2 (% activation)” value (primary human T-cells) was 137 % activation. For the same compound, the EC50 (primary human T-cells) was 0.609 µM.

In the case of `CC(C)(C)c1nnc(-c2ccc3c(c2)N(Cc2ccc(-n4ccc(C(F)(F)F)n4)cc2)C(=O)[C@@H](N)CS3(=O)=O)o1` [Example 27], the IC50 [1] is reported as 2.95 µM, the IC50 [2] is reported as 0.758 µM and the “Emax IL2 (% activation)” value (primary human T-cells) is reported as 160 % activation. It also gave an EC50 (primary human T-cells) of 0.476 µM.

`CC(C)(C)c1nnc(-c2ccc3c(c2)N(Cc2ccc(-n4cnc(C(F)(F)F)c4)cc2)C(=O)[C@@H](N)CS3(=O)=O)o1` [Example 28, (3R)-3-amino-7-(5-tert-butyl-1,3,4-oxadiazol-2-yl)-1,1-dioxo-5-[[4-[4-(trifluoromethyl)imidazol-1-yl]phenyl]methyl]-2,3-dihydro-1λ^6,5-benzothiazepin-4-one] was tested, and the IC50 [1] was 37.3 µM, the IC50 [2] was 4.26 µM and the “Emax IL2 (% activation)” value (primary human T-cells) was 81 % activation. The EC50 (primary human T-cells) was 5.01 µM.

With `CC(N)(c1nnc(-c2ccc3c(c2)N(Cc2ccc(-c4noc(CC(F)(F)F)n4)cc2)C(=O)[C@@H](N)CS3(=O)=O)o1)C(F)(F)F` (stereo partly drawn) [Example 33, (3R)-3-amino-7-[5-(1-amino-2,2,2-trifluoro-1-methyl-ethyl)-1,3,4-oxadiazol-2-yl]-1,1-dioxo-5-[[4-[5-(2,2,2-trifluoroethyl)-1,2,4-oxadiazol-3-yl]phenyl]methyl]-2,3-dihydro-1λ^6,5-benzothiazepin-4-one] the IC50 [1] was 23.8 µM, the IC50 [2] was 2.64 µM and the “Emax IL2 (% activation)” value (primary human T-cells) was 24 % activation. The EC50 (primary human T-cells) was > 10 µM.

`CC(C)(C#N)c1nnc(-c2ccc3c(c2)N(Cc2ccc(-c4ccc(C(F)(F)F)cc4)cc2)C(=O)[C@@H](N)CS3(=O)=O)o1` [Example 46] was tested, and the IC50 [1] was 16.2 µM, the IC50 [2] was 1.27 µM and the “Emax IL2 (% activation)” value (primary human T-cells) was 263 % activation. For the same compound, the EC50 (primary human T-cells) was 0.331 µM.

In the case of `CC(C)(C#N)c1nnc(-c2ccc3c(c2)N(Cc2ccc(-c4ccc(C(F)(F)F)cn4)cc2)C(=O)[C@@H](N)CS3(=O)=O)o1` [Example 47], the IC50 [1] is reported as 7.28 µM, the IC50 [2] is reported as 0.842 µM and the “Emax IL2 (% activation)” value (primary human T-cells) is reported as 163 % activation. For the same compound, the EC50 (primary human T-cells) was 0.67 µM.

With `CC1(c2nnc(-c3ccc4c(c3)N(Cc3ccc(-c5ccc(C(F)(F)F)cc5)cc3)C(=O)[C@@H](N)CS4(=O)=O)o2)CCO1` (stereo partly drawn) [Example 48, (3R)-3-amino-7-[5-(2-methyloxetan-2-yl)-1,3,4-oxadiazol-2-yl]-1,1-dioxo-5-[[4-[4-(trifluoromethyl)phenyl]phenyl]methyl]-2,3-dihydro-1lambda6,5-benzothiazepin-4-one] the IC50 [1] was > 62.5 µM, the IC50 [2] was 1.59 µM and the “Emax IL2 (% activation)” value (primary human T-cells) was 114 % activation. The EC50 (primary human T-cells) was 0.984 µM.

`C[C@@](N)(c1nnc(-c2ccc3c(c2)N(Cc2ccc(-c4noc(C(F)(F)F)n4)cc2)C(=O)[C@@H](N)CS3(=O)=O)o1)C(F)(F)F` [Example 52, (3R)-3-amino-7-[5-[(1R)-1-amino-2,2,2-trifluoro-1-methyl-ethyl]-1,3,4-oxadiazol-2-yl]-1,1-dioxo-5-[[4-[5-(trifluoromethyl)-1,2,4-oxadiazol-3-yl]phenyl]methyl]-2,3-dihydro-1λ^6,5-benzothiazepin-4-one] was tested, and the IC50 [1] was 25.2 µM, the IC50 [2] was 2.32 µM and the “Emax IL2 (% activation)” value (primary human T-cells) was 164 % activation. It also gave an EC50 (primary human T-cells) of 0.645 µM.

`C[C@](N)(c1nnc(-c2ccc3c(c2)N(Cc2ccc(-c4noc(C(F)(F)F)n4)cc2)C(=O)[C@@H](N)CS3(=O)=O)o1)C(F)(F)F` [Example 53, (3R)-3-amino-7-[5-[(1S)-1-amino-2,2,2-trifluoro-1-methyl-ethyl]-1,3,4-oxadiazol-2-yl]-1,1-dioxo-5-[[4-[5-(trifluoromethyl)-1,2,4-oxadiazol-3-yl]phenyl]methyl]-2,3-dihydro-1λ^6,5-benzothiazepin-4-one] was tested, and the IC50 [1] was 43.4 µM, the IC50 [2] was 2.42 µM and the “Emax IL2 (% activation)” value (primary human T-cells) was 187 % activation. For the same compound, the EC50 (primary human T-cells) was 2.07 µM.

`N[C@H]1CS(=O)(=O)c2ccc(-c3nnc(C4(CO)CCCO4)o3)cc2N(Cc2ccc(-c3ccc(C(F)(F)F)cc3)cc2)C1=O` (some centres unmarked) [Example 55] was tested, and the IC50 [1] was > 62.5 µM, the IC50 [2] was 20.3 µM and the “Emax IL2 (% activation)” value (primary human T-cells) was 74 % activation. It also gave an EC50 (primary human T-cells) of 3.11 µM.

With `COC(=O)N1CC2CC(c3nnc(-c4ccc5c(c4)N(Cc4ccc(-c6ccc(OC)cc6)cc4)C(=O)[C@@H](N)CS5(=O)=O)o3)(C2)C1` [Example 59, methyl 1-[5-[(3R)-3-amino-5-[[4-(4-methoxyphenyl)phenyl]methyl]-1,1,4-trioxo-2,3-dihydro-1λ^6,5-benzothiazepin-7-yl]-1,3,4-oxadiazol-2-yl]-3-azabicyclo[3.1.1]heptane-3-carboxylate] the IC50 [1] was 3.04 µM, the IC50 [2] was 1.14 µM and the “Emax IL2 (% activation)” value (primary human T-cells) was 175 % activation. The EC50 (primary human T-cells) was 0.596 µM.

For `COC(=O)N1CC2CC(c3nnc(-c4ccc5c(c4)N(Cc4ccc(-c6ccc(C(F)(F)F)cc6)cc4)C(=O)[C@@H](N)CS5(=O)=O)o3)(C2)C1` [Example 60, methyl 1-[5-[(3R)-3-amino-1,1,4-trioxo-5-[[4-[4-(trifluoromethyl)phenyl]phenyl]methyl]-2,3-dihydro-1λ^6,5-benzothiazepin-7-yl]-1,3,4-oxadiazol-2-yl]-3-azabicyclo[3.1.1]heptane-3-carboxylate], the IC50 [1] was 3.63 µM, the IC50 [2] was 3.08 µM and the “Emax IL2 (% activation)” value (primary human T-cells) was 163 % activation. For the same compound, the EC50 (primary human T-cells) was 0.424 µM.
